From patent US20150297603A1, “HIGH DRUG LOAD TABLET FORMULATION OF [(1R), 2S]-2-AMINOPROPIONIC ACID 2-[4-(4-FLUORO-2-METHYL-1H-INDOL-5-YLOXY)-5-METHYLPYRROLO[2,1-f][1,2,4]TRIAZIN-6-YLOXY]-1-METHYLETHYL ESTER” (Bristol-Myers Squibb Company, priority 2011, published 2015)

Columns and labels:
Format in all cases: physicochemical
pH dependent solubility = assay: pH dependent solubility
Source text: (§1) Brivanib alaninate is an ester compound that is formulated as a free base.

[1] = Stability in solution as a function of pH; details: at acidic pH and at high pH
Source text: as §1
(§2) Its main degradation pathway at neutral and basic pH is hydrolysis to the parent compound, brivanib. Under acidic conditions, it can also undergo diaryl ether cleavage in solution as shown below.

[2] = Degradation of drug during wet granulation process; details: wet granulation process (water as processing aid)
Source text: The use of wet granulation process for brivanib alaninate was not expected to be suitable because brivanib alaninate degrades by hydrolysis. Therefore, any person skilled in the art of pharmaceutical formulation would logically implement all measures to minimize the exposure of drug to water during handling, formulation, processing, and storage.
The manufacturing process of this formulation generally involves mixing the drug with dry powder excipients, such as with one or more binder, disintegrant, and filler. Water is then added to this premix while it is being continuously mixed in a mixer such as a high shear granulator. Alternatively, the binder may not be added as a dry powder to the premix, but dissolved in water. Addition of water with continuous mixing leads to the formation of granules, or granulation. The granules are then dried in dry, hot air using equipment and processes such as fluid bed drying or tray drying. Once dried, the granules may be milled using equipment such as comil or Fitzmil to reduce and/or reduce the width of distribution of particle size of granules. The granules are then mixed with extra-granular ingredients, which may include one or more of disintegrant, filler, glidant, and lubricant. The final blend is then compressed on a tablet press into core tablets. The core tablets may optionally be coated with a nonfunctional film coat.

[3] = pKa of brivanib alaninate; details: free base
Source text: as §1

[4] = Stability of solid drug substance on storage; details: stored at room temperature protected from moisture
Source text: as §2

Cc1cc2c(F)c(Oc3ncnn4cc(OC[C@@H](C)OC(=O)[C@H](C)N)c(C)c34)ccc2[nH]1 [Brivanib alaninate, [(1R), 2S]-2-aminopropionic acid 2-[4-(4-fluoro-2-methyl-1H-indol-5-yloxy)-5-methylpyrrolo[2,1-f][1,2,4]triazin-6-yloxy]-1-methylethyl ester]
solubility (pH dependent solubility; acidic pH): increasing solubility | solubility (pH dependent solubility; neutral and basic pH): limited solubility | degradation [1]: degrades rapidly | degradation of the drug by wet granulation [2]: did not really result in significant degradation | pKa [3]: 6.9 | stability of solid drug substance [4]: acceptable stability
